How the values were obtained:
[1] = test system: mouse experimental autoimmune encephalomyelitis (EAE) model; test: disease animal model of MS (mouse experimental autoimmune encephalomyelitis (EAE) model, clinical score); format: in vivo; conditions: experiment using a disease animal model of MS
Method: Using a mouse EAE model, the suppressive effect of Compound A on an increase in clinical score was evaluated. The evaluation was performed by reference to non-patent document 3. As the experiment animal, 8-week-old female C57BL/6J mouse (CHARLES RIVER LABORATORIES JAPAN, INC.) was used. Monohydrochloride of Compound A was dissolved in 0.5% (w/v) methylcellulose (MC) to prepare 1 mg/mL, 3 mg/mL and 6 mg/mL Compound A solutions. FTY-720 hydrochloride (Cayman Chemical) was dissolved in 0.5% (w/v) MC to prepare a 0.01 mg/mL FTY-720 solution. […]
As clinical scores (score 0; normal, score 1; limp tail, score 2; hind limb weakness, score 3; partial hind limb paralysis, score 4; complete hind limb paralysis, score 5; moribund state, dead), the condition was observed over time and scored for each individual for 18 days from day 1.
Using a mouse Adoptive transfer EAE model, the suppressive effect of Compound A on an increase in clinical score was evaluated. […]
As clinical scores (score 0; normal, score 1; limp tail, score 2; hind limb weakness, score 3; partial hind limb paralysis, score 4; complete hind limb paralysis, score 5; moribund state, dead), the condition was observed over time and scored for each individual for 20 days from day 1.

[2] = target: T1, inducible T cell kinase (ITK) (Homo sapiens, UniProt Q08881); conditions: as described in patent document 1 (WO 2011/065402); cited from earlier work
T1 sequence (Q08881 1-620): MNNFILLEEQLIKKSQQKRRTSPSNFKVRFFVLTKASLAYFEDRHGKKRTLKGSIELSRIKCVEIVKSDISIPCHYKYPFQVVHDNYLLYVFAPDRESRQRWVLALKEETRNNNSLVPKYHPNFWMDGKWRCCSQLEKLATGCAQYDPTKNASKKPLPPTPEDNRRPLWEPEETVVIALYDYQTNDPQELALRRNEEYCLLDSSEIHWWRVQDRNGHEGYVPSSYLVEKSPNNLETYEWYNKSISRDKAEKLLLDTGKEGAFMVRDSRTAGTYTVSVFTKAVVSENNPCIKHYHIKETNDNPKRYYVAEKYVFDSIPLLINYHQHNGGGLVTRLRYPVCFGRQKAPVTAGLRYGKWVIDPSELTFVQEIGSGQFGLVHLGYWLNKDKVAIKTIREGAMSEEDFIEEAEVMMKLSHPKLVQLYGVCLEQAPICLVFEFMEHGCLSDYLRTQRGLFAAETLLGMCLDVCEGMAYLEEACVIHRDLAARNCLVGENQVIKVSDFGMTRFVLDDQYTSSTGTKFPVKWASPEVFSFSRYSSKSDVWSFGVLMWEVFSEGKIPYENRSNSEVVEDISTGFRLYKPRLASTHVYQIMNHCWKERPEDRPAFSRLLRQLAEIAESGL

C[C@@H](C(=O)N(C)c1ccc2cc(-c3n[nH]c4c3CCC(C)(C)C4)[nH]c2c1)N1CCOCC1 [Compound A, N-[2-(6,6-dimethyl-4,5,6,7-tetrahydro-1H-indazol-3-yl)-1H-indol-6-yl]-N-methyl-(2S)-2-(morpholin-4-yl)propanamide]
severity of the disease [1]: significantly reduce severity of the disease
ITK inhibitory activity [2]: has an ITK inhibitory activity
